According to PubChem BioAssay (NCI):
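The compound was tested at five concentrations on cells cultured in 96-well plates, with a 48-hour exposure period. GI50 marks 50% less growth. TGI marks complete inhibition of growth.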

Key:
Test in all cases: NCI-60 cell line screen, 48 h
[1] = test system: SK-MEL-5 melanoma
[2] = test system: HCT-15 colon
[3] = test system: KM12 colon
[4] = test system: M14 melanoma
[5] = test system: HOP-62 NSCLC
[6] = test system: SW-620 colon
[7] = test system: OVCAR-4 ovarian
[8] = test system: OVCAR-3 ovarian
[9] = test system: BT-549 breast
[10] = test system: HL-60(TB) leukemia

Structure (SMILES) | TGI [1] [µM] | TGI [2] [µM] | TGI [3] [µM] | TGI [4] [µM] | TGI [5] [µM] | TGI [6] [µM] | TGI [7] [µM] | TGI [8] [µM] | TGI [9] [µM] | TGI [10] [µM] | GI50 [1] [µM] | GI50 [2] [µM] | GI50 [3] [µM] | GI50 [4] [µM] | GI50 [5] [µM] | GI50 [6] [µM] | GI50 [7] [µM] | GI50 [8] [µM] | GI50 [10] [µM]
CC/C(Cl)=N\OC(=O)Nc1ccc(F)c([N+](=O)[O-])c1 | 29.5 | 19.8 | 34.2 | > 53.6 | 35 | 33.6 | 14.7 | 18.3 | 31.5 |  |  |  |  |  |  |  |  |  | 
Nc1ccc2nc3n(c2c1)C(=O)c1ccccc1-3 | > 100 | > 100 | > 100 | > 100 |  | > 100 | > 100 | > 100 | > 100 | > 100 |  |  |  |  |  |  |  |  | 
Cc1c(C#N)c(N)n(C2OCC(O)C(O)C2O)c(=S)c1C#N (stereo not given) | > 100 | > 100 | > 100 | > 100 | > 100 | > 100 |  | > 100 | > 100 | > 100 |  |  |  |  |  |  |  |  | 
COc1cc(CNc2nc3cc(C(F)(F)F)ccc3nc2-c2ccccc2)cc(OC)c1OC | 73.3 | 56 | 53 | > 100 | > 100 | > 100 |  | > 100 |  | 70 |  |  |  |  |  |  |  |  | 
O=C(CNCc1ccccc1)Oc1c(Cl)c(Cl)c(Cl)c(Cl)c1Cl |  | 61 | 51.1 | > 100 | > 100 | 84.5 | > 100 | 62.9 | 44.2 | 52.4 |  |  |  |  |  |  |  |  | 
CCCCN(CCCC)C(=C(C(Cl)=C(Cl)Cl)[N+](=O)[O-])N(CCCC)CCCC | > 100 | > 100 | > 100 | > 100 | > 100 |  | > 100 | > 100 | > 100 |  |  |  |  |  |  |  |  |  | 
O=C(Nc1ccc(-n2cc(-c3ccncc3)c(-c3ccc(O)c(Cl)c3)n2)cc1)Nc1cccc(Cl)c1Cl | > 32.5 | > 32.5 | > 32.5 | > 32.5 | > 32.5 | > 32.5 | > 32.5 | > 32.5 |  | > 32.5 | 3.26 | 5.33 | 5.95 | 3.16 | 10.6 | 20.6 | 5.47 | 6.67 | 7.49
O=C(CCCN1CCC2(CC1)C(=NC1CCCCC1)NC(=O)N2c1ccccc1)c1ccc(F)cc1 | 37.9 | > 100 | 42.5 | 32.8 | 37.5 | > 100 | > 100 | 31.6 |  | 57.4 |  |  |  |  |  |  |  |  | 
O=C(CCc1cccc(O)c1)NCCCNC(=O)CCc1cccc(O)c1 | > 100 | > 100 | > 100 | > 100 | > 100 | > 100 | > 100 | > 100 | > 100 |  |  |  |  |  |  |  |  |  | 
c1ccc(C2=Nn3c(CCCCCCCCc4nnc5n4N=C(c4ccccc4)CS5)nnc3SC2)cc1 | > 100 | > 100 | > 100 | > 100 | 44 | > 100 | > 100 | > 100 | > 100 |  |  |  |  |  |  |  |  |  | 
COC(=O)C1=C(O)C(C(=O)OC)[C@@]2(O)[C@@H](C(=O)OC)[C@H](C)[C@@H](C)[C@@H]1[C@@H]2C(=O)OC (stereo not given in full) |  | > 100 | > 100 | > 100 | > 100 |  |  | 78.2 | > 100 | > 100 |  |  |  |  |  |  |  |  | 
CC1(C)[C@@H](Cn2cnc3c(Cl)nc(N)nc32)CC[C@@]1(C)CO | 47.3 | > 100 | > 100 | > 100 | > 100 | > 100 | > 100 | > 100 |  |  |  |  |  |  |  |  |  |  | 
COc1ccccc1N1CCN(CCCNC(=O)c2cc(Cl)c(N)c(Cl)c2)CC1 | 33.2 | > 100 | > 100 | 53.1 | > 100 | > 100 | > 100 |  |  | 55.8 |  |  |  |  |  |  |  |  | 
CC(C)CCn1nc(N)c2nc3ccccc3nc21 |  |  | > 100 | > 100 | > 100 | > 100 | > 100 | > 100 | > 100 | > 100 |  |  |  |  |  |  |  |  | 
O=C(OCc1ccccc1)C(Cc1ccccc1)N(Cc1ccccc1)Cc1ccccc1 (stereo not given) | > 100 | > 100 | > 100 | > 100 | > 100 | > 100 | > 100 | > 100 |  | > 100 |  |  |  |  |  |  |  |  | 
CCCCC/C(C=O)=C\c1ccccc1 | > 100 | > 100 | > 100 | > 100 | > 100 | > 100 | > 100 |  | > 100 | > 100 |  |  |  |  |  |  |  |  | 
CC(C)(C)C(=O)C(Cc1ccccc1)C(=O)C(C)(C)C | > 100 | > 100 | > 100 | > 100 | > 100 | > 100 | > 100 | > 100 |  | > 100 |  |  |  |  |  |  |  |  | 
COc1cc(CC(C)N)ccc1O (stereo not given) | > 100 | > 100 | > 100 | > 100 | > 100 | > 100 | > 100 | > 100 |  | > 100 |  |  |  |  |  |  |  |  | 
Cc1cn([C@H]2C[C@](C)(CO)N(C)O2)c(=O)[nH]c1=O | > 100 |  | > 100 | > 100 | > 100 | > 100 | > 100 |  | > 100 | > 100 |  |  |  |  |  |  |  |  | 
COc1ccc(N=NC(=Nc2ccc(F)cc2)c2ccc(N(CCC#N)CCC#N)cc2)cc1 | > 100 | > 100 | 44.9 | > 100 | > 100 | > 100 | > 100 | > 100 | 70.8 |  |  |  |  |  |  |  |  |  | 
NC(=O)c1ncn2c1NC(=O)CC2 | > 100 | > 100 | > 100 |  | > 100 | > 100 | > 100 | > 100 |  | > 100 |  |  |  |  |  |  |  |  | 
CC1=CC(=O)CC2(C)CCC(C(C)CC(=O)CC(C)C)CC12 (stereo not given) | 36.4 | > 100 | 36.4 | 32.1 |  | 46 | > 100 |  |  | 43.2 |  |  |  |  |  |  |  |  | 
CN(C)P(=O)(Oc1occc1C(O)Cc1ccccc1)N(C)C (stereo not given) | > 100 | > 100 | > 100 | > 100 | > 100 | > 100 | > 100 | > 100 | > 100 |  |  |  |  |  |  |  |  |  | 
